Data taken from the kinase profiling compilation of Christmann-Franck et al. (2016).

Key:
Assay in all cases: radiometric filter-binding kinase assay
MKNK2 (human) = MKNK2 (human) (UniProt Q9HBH9)
PRKCG (human) = PRKCG (human) (UniProt P05129)
MKNK1 (human) = MKNK1 (human) (UniProt Q9BUB5)
LCK (mouse) = settings: accession and sequence are those of the human protein
NEK2 (human) = NEK2 (human) (UniProt P51955)
MAP3K9 (human) = MAP3K9 (human) (UniProt P80192)
PRKAA1 or PRKAA2 (rat) = settings: accession and sequence are those of the human protein
MARK4 (human) = MARK4 (human) (UniProt Q96L34)
CHEK2 (human) = CHEK2 (human) (UniProt O96017)
[1] = tested on: AKT2 (human), P31751 [S474D]
AURKB (human) = AURKB (human) (UniProt Q96GD4)
MAPK10 (human) = MAPK10 (human) (UniProt P53779)
PAK7 (human) = PAK7 (human) (UniProt Q9P286)
HIPK2 (human) = HIPK2 (human) (UniProt Q9H2X6)
IRAK4 (human) = IRAK4 (human) (UniProt Q9NWZ3)
EPHA2 (human) = EPHA2 (human) (UniProt P29317)
GSK3B (human) = GSK3B (human) (UniProt P49841)
STK16 (human) = STK16 (human) (UniProt O75716)
STK3 (human) = STK3 (human) (UniProt Q13188)
MAPK12 (human) = MAPK12 (human) (UniProt P53778)

Sequence of MAP3K9 (human) (P80192 whole entry, looked up): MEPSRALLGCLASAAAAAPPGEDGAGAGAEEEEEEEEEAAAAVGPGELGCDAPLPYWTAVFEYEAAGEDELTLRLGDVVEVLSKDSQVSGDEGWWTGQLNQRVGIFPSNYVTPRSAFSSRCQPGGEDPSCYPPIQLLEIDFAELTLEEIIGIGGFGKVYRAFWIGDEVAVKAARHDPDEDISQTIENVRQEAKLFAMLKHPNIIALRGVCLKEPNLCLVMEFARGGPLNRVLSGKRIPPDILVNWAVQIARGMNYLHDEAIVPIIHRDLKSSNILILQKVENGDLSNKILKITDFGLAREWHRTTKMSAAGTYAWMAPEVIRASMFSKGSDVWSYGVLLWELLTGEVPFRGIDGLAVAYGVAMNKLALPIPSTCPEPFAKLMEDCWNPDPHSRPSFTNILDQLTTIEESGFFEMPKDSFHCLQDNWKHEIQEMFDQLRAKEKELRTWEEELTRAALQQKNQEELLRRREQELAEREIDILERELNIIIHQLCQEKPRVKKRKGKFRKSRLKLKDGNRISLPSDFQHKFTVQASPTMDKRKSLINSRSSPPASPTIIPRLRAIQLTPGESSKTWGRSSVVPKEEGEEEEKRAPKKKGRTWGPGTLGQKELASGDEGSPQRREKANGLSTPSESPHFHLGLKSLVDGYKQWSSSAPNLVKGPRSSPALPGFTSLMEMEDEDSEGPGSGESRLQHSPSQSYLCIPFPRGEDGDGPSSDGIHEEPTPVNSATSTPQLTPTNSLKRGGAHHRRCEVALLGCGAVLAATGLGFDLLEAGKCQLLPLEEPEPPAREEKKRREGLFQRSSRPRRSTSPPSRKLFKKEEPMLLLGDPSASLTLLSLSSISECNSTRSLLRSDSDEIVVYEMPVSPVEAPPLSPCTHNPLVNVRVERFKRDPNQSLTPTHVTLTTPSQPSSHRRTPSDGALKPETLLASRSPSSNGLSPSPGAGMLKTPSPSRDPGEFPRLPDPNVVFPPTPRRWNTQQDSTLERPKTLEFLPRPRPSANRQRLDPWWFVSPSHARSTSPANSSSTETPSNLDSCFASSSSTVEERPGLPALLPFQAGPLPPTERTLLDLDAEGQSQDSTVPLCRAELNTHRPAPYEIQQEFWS
Sequence of PAK7 (human) (Q9P286 whole entry, looked up): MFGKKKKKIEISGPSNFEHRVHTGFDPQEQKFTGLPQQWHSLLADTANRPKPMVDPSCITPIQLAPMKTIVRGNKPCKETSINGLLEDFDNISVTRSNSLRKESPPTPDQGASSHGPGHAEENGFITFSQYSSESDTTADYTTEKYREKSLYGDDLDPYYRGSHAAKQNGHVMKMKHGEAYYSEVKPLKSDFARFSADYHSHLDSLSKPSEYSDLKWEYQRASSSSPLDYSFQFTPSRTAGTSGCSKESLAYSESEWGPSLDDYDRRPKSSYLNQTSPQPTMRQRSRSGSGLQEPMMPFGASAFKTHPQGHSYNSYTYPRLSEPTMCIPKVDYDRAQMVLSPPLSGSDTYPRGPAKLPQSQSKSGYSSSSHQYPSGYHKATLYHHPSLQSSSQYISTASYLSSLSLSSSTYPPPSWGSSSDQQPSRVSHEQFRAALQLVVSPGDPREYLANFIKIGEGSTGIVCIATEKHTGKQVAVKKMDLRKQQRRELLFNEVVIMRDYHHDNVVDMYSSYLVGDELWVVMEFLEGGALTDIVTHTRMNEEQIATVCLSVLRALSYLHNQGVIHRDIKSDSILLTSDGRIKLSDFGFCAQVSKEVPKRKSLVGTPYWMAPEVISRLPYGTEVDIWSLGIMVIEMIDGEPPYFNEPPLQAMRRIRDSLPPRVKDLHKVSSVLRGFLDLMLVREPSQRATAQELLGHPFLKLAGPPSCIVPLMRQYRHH
Sequence of NEK2 (human) (P51955 whole entry, looked up): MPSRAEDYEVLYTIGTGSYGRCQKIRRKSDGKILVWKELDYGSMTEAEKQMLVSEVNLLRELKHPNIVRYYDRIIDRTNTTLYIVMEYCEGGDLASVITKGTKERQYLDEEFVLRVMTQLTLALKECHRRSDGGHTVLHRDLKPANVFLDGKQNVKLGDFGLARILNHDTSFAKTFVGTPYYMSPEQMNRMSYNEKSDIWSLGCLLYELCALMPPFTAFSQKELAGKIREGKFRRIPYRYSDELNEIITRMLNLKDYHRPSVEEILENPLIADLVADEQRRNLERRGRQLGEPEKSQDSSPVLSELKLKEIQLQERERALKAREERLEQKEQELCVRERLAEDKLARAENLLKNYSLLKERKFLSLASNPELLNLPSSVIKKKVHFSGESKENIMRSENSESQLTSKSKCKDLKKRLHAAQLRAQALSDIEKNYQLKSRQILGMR
Sequence of STK16 (human) (O75716 whole entry, looked up): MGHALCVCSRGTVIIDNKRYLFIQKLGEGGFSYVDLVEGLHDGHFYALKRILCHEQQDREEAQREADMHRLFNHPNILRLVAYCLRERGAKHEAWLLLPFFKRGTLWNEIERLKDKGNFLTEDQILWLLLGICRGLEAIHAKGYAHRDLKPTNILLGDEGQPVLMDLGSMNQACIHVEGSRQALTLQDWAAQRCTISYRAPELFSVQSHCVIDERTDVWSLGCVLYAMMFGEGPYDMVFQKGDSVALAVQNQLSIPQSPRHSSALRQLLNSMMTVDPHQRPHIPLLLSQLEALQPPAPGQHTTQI
Sequence of CHEK2 (human) (O96017 whole entry, looked up): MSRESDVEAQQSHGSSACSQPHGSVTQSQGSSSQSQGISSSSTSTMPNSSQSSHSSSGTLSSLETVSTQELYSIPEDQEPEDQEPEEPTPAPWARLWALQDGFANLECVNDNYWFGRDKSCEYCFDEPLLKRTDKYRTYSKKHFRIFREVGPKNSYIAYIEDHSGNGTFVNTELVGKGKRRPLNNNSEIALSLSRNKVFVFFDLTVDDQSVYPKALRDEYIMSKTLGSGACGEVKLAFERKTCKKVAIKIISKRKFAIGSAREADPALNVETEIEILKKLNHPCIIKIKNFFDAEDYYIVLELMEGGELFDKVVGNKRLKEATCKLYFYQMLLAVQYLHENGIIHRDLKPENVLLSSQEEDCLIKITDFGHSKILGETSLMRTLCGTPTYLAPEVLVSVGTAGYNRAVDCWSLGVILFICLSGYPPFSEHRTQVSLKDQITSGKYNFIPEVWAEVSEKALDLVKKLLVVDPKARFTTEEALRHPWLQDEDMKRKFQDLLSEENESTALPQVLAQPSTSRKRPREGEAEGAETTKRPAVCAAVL
Sequence of AURKB (human) (Q96GD4 whole entry, looked up): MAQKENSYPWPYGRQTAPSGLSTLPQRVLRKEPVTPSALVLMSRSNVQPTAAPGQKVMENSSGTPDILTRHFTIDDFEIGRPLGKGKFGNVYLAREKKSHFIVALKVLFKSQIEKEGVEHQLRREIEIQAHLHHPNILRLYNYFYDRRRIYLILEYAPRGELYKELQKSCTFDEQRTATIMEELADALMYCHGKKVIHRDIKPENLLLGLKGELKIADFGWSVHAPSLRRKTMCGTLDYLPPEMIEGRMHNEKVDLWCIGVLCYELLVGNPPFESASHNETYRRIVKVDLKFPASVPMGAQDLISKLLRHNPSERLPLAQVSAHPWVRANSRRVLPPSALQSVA
Sequence of MKNK2 (human) (Q9HBH9 whole entry, looked up): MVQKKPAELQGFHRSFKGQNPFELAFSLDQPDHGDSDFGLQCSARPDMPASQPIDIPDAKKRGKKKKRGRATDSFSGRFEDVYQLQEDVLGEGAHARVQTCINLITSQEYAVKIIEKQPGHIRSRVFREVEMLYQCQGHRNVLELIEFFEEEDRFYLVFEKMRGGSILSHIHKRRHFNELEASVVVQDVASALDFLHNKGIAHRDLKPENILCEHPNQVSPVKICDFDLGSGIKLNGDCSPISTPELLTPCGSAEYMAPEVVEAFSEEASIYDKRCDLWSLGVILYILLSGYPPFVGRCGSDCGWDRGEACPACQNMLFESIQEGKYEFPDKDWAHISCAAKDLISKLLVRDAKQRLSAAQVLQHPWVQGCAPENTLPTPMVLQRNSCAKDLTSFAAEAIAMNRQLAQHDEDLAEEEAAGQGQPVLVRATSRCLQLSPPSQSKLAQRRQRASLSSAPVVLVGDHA
Sequence of AKT2 (human), P31751 [S474D] (P31751 whole entry S474D, looked up): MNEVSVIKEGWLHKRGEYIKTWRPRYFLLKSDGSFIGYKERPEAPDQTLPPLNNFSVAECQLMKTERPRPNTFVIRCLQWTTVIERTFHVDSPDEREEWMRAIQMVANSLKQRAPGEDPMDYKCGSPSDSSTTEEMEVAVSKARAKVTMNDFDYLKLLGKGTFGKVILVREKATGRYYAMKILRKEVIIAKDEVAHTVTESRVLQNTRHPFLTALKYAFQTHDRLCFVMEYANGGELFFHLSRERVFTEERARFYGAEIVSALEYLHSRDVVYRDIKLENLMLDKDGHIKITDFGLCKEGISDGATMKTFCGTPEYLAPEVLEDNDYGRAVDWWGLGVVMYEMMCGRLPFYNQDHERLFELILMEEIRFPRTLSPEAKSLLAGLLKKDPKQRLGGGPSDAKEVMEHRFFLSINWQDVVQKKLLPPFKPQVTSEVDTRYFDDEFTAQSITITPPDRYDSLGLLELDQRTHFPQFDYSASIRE
Sequence of MAPK10 (human) (P53779 whole entry, looked up): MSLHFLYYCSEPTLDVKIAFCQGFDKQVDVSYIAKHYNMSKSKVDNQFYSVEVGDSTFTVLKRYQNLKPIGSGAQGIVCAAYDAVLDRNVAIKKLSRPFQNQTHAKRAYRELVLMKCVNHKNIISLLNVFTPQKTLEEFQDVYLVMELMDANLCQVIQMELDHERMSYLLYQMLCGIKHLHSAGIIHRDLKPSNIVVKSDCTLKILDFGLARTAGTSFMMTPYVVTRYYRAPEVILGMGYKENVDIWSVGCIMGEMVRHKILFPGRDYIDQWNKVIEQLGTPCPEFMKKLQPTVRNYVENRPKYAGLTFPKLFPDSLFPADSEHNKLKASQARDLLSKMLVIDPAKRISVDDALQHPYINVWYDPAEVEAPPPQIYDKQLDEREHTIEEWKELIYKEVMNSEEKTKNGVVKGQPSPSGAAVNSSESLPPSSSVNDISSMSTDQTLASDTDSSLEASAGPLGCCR

SMILES: CCN1CCN(Cc2ccc(NC(=O)c3ccc(C)c(Oc4ccnc5[nH]ccc45)c3)cc2C(F)(F)F)CC1
- residual activity (MKNK2 (human); compound 0.1 µM): 109%
- residual activity (MKNK2 (human); compound 1.0 µM): 112%
- residual activity (MKNK2 (human); compound 10.0 µM): 82.8%
- residual activity (PRKCG (human); compound 0.1 µM): 108%
- residual activity (PRKCG (human); compound 1.0 µM): 102%
- residual activity (PRKCG (human); compound 10.0 µM): 106%
- residual activity (MKNK1 (human); compound 0.1 µM): 98%
- residual activity (MKNK1 (human); compound 1.0 µM): 104%
- residual activity (MKNK1 (human); compound 10.0 µM): 82.7%
- residual activity (LCK (mouse); compound 0.1 µM): 12.7%
- residual activity (LCK (mouse); compound 1.0 µM): 0.851%
- residual activity (LCK (mouse); compound 10.0 µM): 5.77%
- residual activity (NEK2 (human); compound 0.1 µM): 112%
- residual activity (NEK2 (human); compound 1.0 µM): 107%
- residual activity (NEK2 (human); compound 10.0 µM): 93.4%
- residual activity (MAP3K9 (human); compound 0.1 µM): 106%
- residual activity (MAP3K9 (human); compound 1.0 µM): 90%
- residual activity (MAP3K9 (human); compound 10.0 µM): 39.6%
- residual activity (PRKAA1 or PRKAA2 (rat); compound 0.1 µM): 106%
- residual activity (PRKAA1 or PRKAA2 (rat); compound 1.0 µM): 91.7%
- residual activity (PRKAA1 or PRKAA2 (rat); compound 10.0 µM): 85.2%
- residual activity (MARK4 (human); compound 0.1 µM): 116%
- residual activity (MARK4 (human); compound 1.0 µM): 104%
- residual activity (MARK4 (human); compound 10.0 µM): 88.7%
- residual activity (CHEK2 (human); compound 0.1 µM): 117%
- residual activity (CHEK2 (human); compound 1.0 µM): 103%
- residual activity (CHEK2 (human); compound 10.0 µM): 67.9%
- residual activity ([1]; compound 0.1 µM): 105%
- residual activity ([1]; compound 1.0 µM): 114%
- residual activity ([1]; compound 10.0 µM): 49.3%
- residual activity (AURKB (human); compound 0.1 µM): 116%
- residual activity (AURKB (human); compound 1.0 µM): 108%
- residual activity (AURKB (human); compound 10.0 µM): 118%
- residual activity (MAPK10 (human); compound 0.1 µM): 116%
- residual activity (MAPK10 (human); compound 1.0 µM): 91.8%
- residual activity (MAPK10 (human); compound 10.0 µM): 31.8%
- residual activity (PAK7 (human); compound 0.1 µM): 108%
- residual activity (PAK7 (human); compound 1.0 µM): 104%
- residual activity (PAK7 (human); compound 10.0 µM): 87.5%
- residual activity (HIPK2 (human); compound 0.1 µM): 105%
- residual activity (HIPK2 (human); compound 1.0 µM): 60.3%
- residual activity (HIPK2 (human); compound 10.0 µM): 12.6%
- residual activity (IRAK4 (human); compound 0.1 µM): 98.6%
- residual activity (IRAK4 (human); compound 1.0 µM): 102%
- residual activity (EPHA2 (human); compound 0.1 µM): 74%
- residual activity (EPHA2 (human); compound 1.0 µM): 19.5%
- residual activity (EPHA2 (human); compound 10.0 µM): 13.7%
- residual activity (GSK3B (human); compound 0.1 µM): 102%
- residual activity (GSK3B (human); compound 1.0 µM): 104%
- residual activity (GSK3B (human); compound 10.0 µM): 101%
- residual activity (STK16 (human); compound 0.1 µM): 103%
- residual activity (STK16 (human); compound 1.0 µM): 90.7%
- residual activity (STK16 (human); compound 10.0 µM): 99.2%
- residual activity (STK3 (human); compound 0.1 µM): 111%
- residual activity (STK3 (human); compound 1.0 µM): 124%
- residual activity (STK3 (human); compound 10.0 µM): 91.5%
- residual activity (MAPK12 (human); compound 1.0 µM): 37.8%
- residual activity (MAPK12 (human); compound 10.0 µM): 10.8%
